Where “and” joins values, the source holds several entries; their conditions need not be identical. Equal entries are not always repeated.

Assay [1] has as its target T1, cyclic AMP phosphodiesterase (Canis lupus familiaris, UniProt A0A8I3NYE0).
T1 construct: Two to four grams of left ventricular muscle was obtained; from tissue; host or cells: dog left ventricular muscle, detergent-extracted particulate fraction, DEAE-cellulose pool
T1 sequence (A0A8I3NYE0 1-1135): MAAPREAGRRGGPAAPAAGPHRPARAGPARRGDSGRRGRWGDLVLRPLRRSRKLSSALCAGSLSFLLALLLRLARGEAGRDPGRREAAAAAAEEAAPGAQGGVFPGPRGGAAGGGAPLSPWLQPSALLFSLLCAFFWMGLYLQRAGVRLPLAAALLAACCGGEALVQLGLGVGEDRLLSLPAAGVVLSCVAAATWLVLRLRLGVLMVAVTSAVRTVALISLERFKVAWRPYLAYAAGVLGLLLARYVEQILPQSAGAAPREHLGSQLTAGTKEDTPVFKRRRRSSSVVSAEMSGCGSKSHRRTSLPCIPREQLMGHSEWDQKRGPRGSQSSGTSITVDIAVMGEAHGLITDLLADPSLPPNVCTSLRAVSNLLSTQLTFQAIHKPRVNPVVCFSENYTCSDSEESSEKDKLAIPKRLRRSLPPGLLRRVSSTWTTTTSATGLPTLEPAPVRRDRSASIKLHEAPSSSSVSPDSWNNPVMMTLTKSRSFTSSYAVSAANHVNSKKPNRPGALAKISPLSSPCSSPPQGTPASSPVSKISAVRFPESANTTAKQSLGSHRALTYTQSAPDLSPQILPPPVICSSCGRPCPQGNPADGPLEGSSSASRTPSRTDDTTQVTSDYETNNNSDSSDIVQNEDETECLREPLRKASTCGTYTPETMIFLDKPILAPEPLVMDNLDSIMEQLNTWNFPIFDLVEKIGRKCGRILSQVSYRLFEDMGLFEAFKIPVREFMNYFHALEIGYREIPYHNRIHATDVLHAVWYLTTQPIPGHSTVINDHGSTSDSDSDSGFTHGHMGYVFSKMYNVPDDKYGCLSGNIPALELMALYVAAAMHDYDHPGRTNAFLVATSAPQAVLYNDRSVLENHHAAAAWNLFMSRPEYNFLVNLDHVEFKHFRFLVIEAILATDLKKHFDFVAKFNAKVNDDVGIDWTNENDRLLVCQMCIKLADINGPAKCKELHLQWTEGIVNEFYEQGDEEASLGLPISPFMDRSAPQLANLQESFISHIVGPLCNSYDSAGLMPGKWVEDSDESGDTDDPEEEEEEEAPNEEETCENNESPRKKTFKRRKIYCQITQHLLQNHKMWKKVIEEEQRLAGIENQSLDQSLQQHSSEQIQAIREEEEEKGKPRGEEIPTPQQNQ
Put plainly: effect on cyclic AMP phosphodiesterase isolated from dog's heart. The assay is classed as biochemical. Particulars: substrate 1.0 uM; for Inhibitory effect on PDE activity / inhibition at 10 µM / inhibition at 100 µM: falls with concentration; for Inhibitory effect on PDE activity: unit assumed; for IC50: pH 8.0, read-out: IC 50 (50% inhibition of substrate hydrolysis); for inhibition at 10 µM / inhibition at 100 µM: read-out: Inhibitory effect on PDE activity.

For assay [2], the system named is blood perfused papillary muscle preparation. The assay is described as follows: contractile power on blood perfused papillary muscle preparation. On the set-up: species or system dog. Particulars: for activation at 0.001 mg / activation at 0.003 mg / activation at 0.01 mg / activation at 0.03 mg: Canis lupus familiaris, read-out: change of contractivity (%); for activation at 0.001 mg: dose 1.0 ug; for activation at 0.003 mg: dose 3.0 ug; for activation at 0.01 mg: dose 10.0 ug; for activation at 0.03 mg: dose 30.0 ug; for ED 30 (developed tension of papillary muscle): least-square method. As to the method: Determination of contractile power on blood perfused papillary muscle preparation:
Dogs of either sex weighing 7-12 kg were anesthetized with sodium pentobarbital (30 mg/kg, i.v.). Heparin of 1000 unit/kg was administered to each animal intravenously. The animals were exsanguinated and heart was removed. The preparation was perfused through the cannulated anterior septal artery (ASA) with arterial blood from a donor dog at constant pressure of about […]. Donor dogs were anesthetized with sodium pentobarbital (30 mg/kg, i.v.). Heparin of 1000 units/kg was administered intravenously. The papillary muscle was stimulated with rectangular pulses of 5- ms duration and about 1.5 times the threshold voltage at a rate of 120 stimuli/min through bipolar electrodes. Resting tension was made to 2 g. The developed tension of papillary muscle was determined by Isometric tresducer. Detailed method was reporated by Matsumoto in Am J. Physiol. 218, 1459-1463 (1970). Test compound at the doses of 10-30 ul was injected in flowing blood in the gum tube connected to catheter. The inotropic effect of the test compounds was shown by change percent of developed tension compared with that prior to the administration of the test compounds.

For assay [3], the system named is blood-perfused sino-atrial preparation. The assay is described as follows: sinus rate on blood-perfused sino-atrial preparation. The arrangement: species or system dog. Particulars: Canis lupus familiaris, read-out: change of sinus rate (%); for activation at 0.001 mg: dose 1.0 ug; for activation at 0.003 mg: dose 3.0 ug; for activation at 0.01 mg: dose 10.0 ug; for activation at 0.03 mg: dose 30.0 ug. As to the method: Determination of sinus rate on blood-perfused sino-atrial preparation: Mongrel gods of either sex weighing 7-12 kg were anesthetized with sodium pentoba rbital (30 mg/kg i.v.). Heparin ob 1000 unit/kg was administered to each animal intravenously and the animals were exsanguinated. Heart was removed and put in Krebs-Henseleit solution. Catheter was inserted into blood vessel between right coronary artery and SA nodes. Right atrium and catheter were together removed. Blood supplied from carotid artery of donor dog of either sex weighing 15-25 kg, was supplied to blood vessel cather from right coronary artery and SA node under constant blood pressure of 100 mmHG by use of Peristaltic pump. The resting tension of right atrial muscle was made to 2g. The sinus rate triggered by spontaneous contraction of atrial muscle was determined on Narco physiograph Narcotrace 4). Detailed method was reported by S. Chiba, et al. in Japanese Pharmacology 25, 433-439(1975). Doses of test compounds were injected into flowing blood in gum tube connected to the near part of the catheter inserted into right coronary artery. The effects on sinus rate were shown as percent compared with the sinus ratio prior to the injection of the test compounds.

Regarding “6-(2-methylimidazol-1-yl)-(4H)-3,1-benzimidazol-2-one”, the Inhibitory effect on PDE activity in assay [1] (0.1 uM test compound) is 95.9%; in assay [1] (1 uM test compound) it was 86.8%; in assay [1] (10 uM test compound), 62.6%; in assay [1] (100 uM test compound), 37.9%. In assay [1], the IC50 worked out at 32.4 µM.

For `Cc1nccn1-c1ccc2c(c1)COC(=O)N2` [6-(2-methylimidazol-1-yl)-(4H)-3,1-benzoxazine-2-one], in assay [2], the activation at 0.001 mg came to 0%, the activation at 0.003 mg came to 2.44%, the activation at 0.01 mg came to 8.57% and the activation at 0.03 mg turned out to be 13.5%. Further, in assay [2], the “ED 30 (developed tension of papillary muscle)” value is greater than 1000 µg. Further, in assay [3], the activation at 0.001 mg stood at 0%, the activation at 0.003 mg was determined as 0%, the activation at 0.01 mg came out at 0.86% and the activation at 0.03 mg is 3.42%. Also, the inhibition at 10 µM in assay [1] (10 uM test compound) was found to be 51.7%. For the same molecule, in assay [1] (100 uM test compound), the inhibition at 100 µM stood at 35.8%. In assay [1], the IC50 was found to be 12.8 µM.

On to `O=C1Nc2ccc(-n3cnc4ccccc43)cc2CO1` [6-(benzimidazol-1-yl)-(4H)-3,1-benzoxazin-2-one], for which, in assay [2], the activation at 0.001 mg was 0%, the activation at 0.003 mg is 1.13%, the activation at 0.01 mg came out at 2.63% and the activation at 0.03 mg came to 5.24%. Further, in assay [2], the “ED 30 (developed tension of papillary muscle)” value was greater than 1000 µg. Besides, in assay [3], the activation at 0.001 mg was determined as 0%, the activation at 0.003 mg is 0%, the activation at 0.01 mg turned out to be 0.3% and the activation at 0.03 mg came out at 0.75%. Moreover, in assay [1] (10 uM test compound), the inhibition at 10 µM was 61.6%. In addition, in assay [1] (100 uM test compound), the inhibition at 100 µM is 30.1%.

Turning to `O=C1Nc2ccc(-n3ccnc3)cc2CO1` [6-(imidazol-1-yl)-(4H)-3,1-benzoxazin-2-one], in assay [2], the activation at 0.001 mg stood at 3.33%, the activation at 0.003 mg was found to be 6.95%, the activation at 0.01 mg was 9.76% and the activation at 0.03 mg was determined as 16.2%. In addition, in assay [2], the “ED 30 (developed tension of papillary muscle)” value is greater than 1000 µg. Further, in assay [3], the activation at 0.001 mg was determined as 0%, the activation at 0.003 mg was found to be 0.84%, the activation at 0.01 mg was found to be 2.52% and the activation at 0.03 mg was 6.67%. For the same molecule, in assay [1] (10 uM test compound), the inhibition at 10 µM amounted to 60%. Further, the inhibition at 100 µM in assay [1] (100 uM test compound) is 41.8%. For the same molecule, the IC50 in assay [1] was 31 µM and 12.7 µM.

The record behind these values is US5171851A, “Imidazole substituted benzoxazine or benzothiazine derivatives” (Dong-A Pharm. Co., Ltd., priority 1990, dated 1992).
